# pEC50: −log10 of the molar value.
# Target: human TMEM16A (TMEM16Aabc variant) (Homo sapiens, UniProt Q5XXA6, DEL476-501, form not given)
# Test: Automated whole-cell patch clamp (Qpatch) TMEM16A potentiator assay in FRT cells stably expressing human TMEM16A
# Assay type: cell-based
# Details: for % Potentiation @ 3.33 μM Avg: 3.33 μM solution of test compound, percentage increase of baseline TMEM16A current; for pEC50: calculated EC50, Qpatch TMEM16A current at +70 mV
# In short: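 Potentiation was read as the rise in peak +70 mV current over baseline (%), from cumulative 5-min additions of compound. Recordings used whole-cell automated patch of FRT cells stably carrying human TMEM16Aabc, with pipette Ca2+ buffered to give ~20% maximal current. EC50 and efficacy came from concentration-response fits.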
# human TMEM16A (TMEM16Aabc variant), sequence (Q5XXA6 with tags, fused parts or gaps DEL476-501): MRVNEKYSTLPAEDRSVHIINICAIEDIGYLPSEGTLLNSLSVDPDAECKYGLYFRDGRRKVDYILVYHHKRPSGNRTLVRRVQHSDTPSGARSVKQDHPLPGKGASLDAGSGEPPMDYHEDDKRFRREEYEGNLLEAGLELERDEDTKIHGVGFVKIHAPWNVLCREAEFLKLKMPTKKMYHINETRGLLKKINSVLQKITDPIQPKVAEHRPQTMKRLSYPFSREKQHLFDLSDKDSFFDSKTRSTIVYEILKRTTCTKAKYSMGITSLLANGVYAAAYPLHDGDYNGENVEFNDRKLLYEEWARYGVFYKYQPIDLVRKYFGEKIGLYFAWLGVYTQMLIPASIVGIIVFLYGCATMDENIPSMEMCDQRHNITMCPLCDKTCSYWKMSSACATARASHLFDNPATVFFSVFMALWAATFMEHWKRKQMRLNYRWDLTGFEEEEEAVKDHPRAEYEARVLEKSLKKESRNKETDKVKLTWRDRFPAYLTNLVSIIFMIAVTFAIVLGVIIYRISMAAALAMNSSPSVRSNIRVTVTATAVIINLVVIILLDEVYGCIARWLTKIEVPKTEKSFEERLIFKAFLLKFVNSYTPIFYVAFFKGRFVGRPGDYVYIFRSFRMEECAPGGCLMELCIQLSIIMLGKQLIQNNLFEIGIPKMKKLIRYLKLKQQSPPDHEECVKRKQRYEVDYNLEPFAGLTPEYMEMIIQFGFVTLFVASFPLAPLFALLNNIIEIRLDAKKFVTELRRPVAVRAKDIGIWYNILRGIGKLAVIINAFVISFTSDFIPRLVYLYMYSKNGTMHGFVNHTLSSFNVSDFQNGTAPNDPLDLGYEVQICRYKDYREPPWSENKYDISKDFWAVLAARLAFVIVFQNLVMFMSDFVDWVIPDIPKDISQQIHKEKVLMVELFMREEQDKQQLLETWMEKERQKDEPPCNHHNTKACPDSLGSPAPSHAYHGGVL
Structure (SMILES),% Potentiation @ 3.33 μM Avg [%],pEC50
"CC(C)(C)NC(=O)c1cc(NC(=O)Cc2cccc(F)c2F)ccn1 [Example 23.8, N-tert-Butyl-4-[[2-(2,3-difluorophenyl)acetyl]amino]pyridine-2-carboxamide]",122,
"CC(C)(C)NC(=O)c1cccc(NC(=O)Cc2cc(Cl)ccc2O)c1 [Example 2, N-tert-Butyl-3-[[2-(5-chloro-2-hydroxy-phenyl)acetyl]amino]benzamide]",262,6.57
"CC(C#N)(CO)NC(=O)c1cc(NC(=O)Cc2cc(F)ccc2O)ccn1 (stereo not shown) [Example 81.1, N-(1-Cyano-2-hydroxy-1-methyl-ethyl)-4-[[2-(5-fluoro-2-hydroxy-phenyl)acetyl]amino] pyridine-2-carboxamide]",108,
"N#CC1(NC(=O)c2cc(NC(=O)Cc3ccc(Cl)c(O)c3)ccn2)CCOCC1 [Example 92, 4-[[2-(4-Chloro-3-hydroxy-phenyl)acetyl]amino]-N-(4-cyanotetrahydropyran-4-yl)pyridine-2-carboxamide]",133,6.96
"C#CC(C)(C)NC(=O)c1cc(NC(=O)Cc2ccc(Cl)c(O)c2)ccn1 [Example 92.2, 4-[[2-(4-Chloro-3-hydroxy-phenyl)acetyl]amino]-N-(1,1-dimethylprop-2-ynyl)pyridine-2-carboxamide]",71,8.00
"CC(C)(C)NC(=O)c1cc(NC(=O)CC2C3CC4CC(C3)CC2C4)ccn1 (stereo not shown) [Example 5.1, 4-[[2-(2-Adamantyl)acetyl]amino]-N-tert-butyl-pyridine-2-carboxamide]",140,6.06
"CC(C)(C)NC(=O)c1cc(NC(=O)Cc2cc(Cl)ccc2O)ccc1F [Example 17, N-tert-Butyl-5-[[2-(5-chloro-2-hydroxy-phenyl)acetyl]amino]-2-fluoro-benzamide]",173,5.83
"O=C(Cc1cc(Cl)ccc1O)Nc1cccc(C(=O)NC2CCOCC2)c1 [Example 7.4, 3-[[2-(5-Chloro-2-hydroxy-phenyl)acetyl]amino]-N-tetrahydropyran-4-yl-benzamide]",52,6.19
"CC(C)(C)NC(=O)c1cc(NC(=O)Cc2cccc(F)c2)ccn1 [Example 5.9, N-tert-Butyl-4-[[2-(3-fluorophenyl)acetyl]amino]pyridine-2-carboxamide]",126,5.95
"CC(C)(C)NC(=O)c1cc(NC(=O)Cc2cc(C(C)(C)C)ccc2O)ccn1 [Example 10, N-tert-Butyl-4-[[2-(5-tert-butyl-2-hydroxy-phenyl)acetyl]amino]pyridine-2-carboxamide]",250,6.66
"CC(C)(C)NC(=O)c1cccc(NC(=O)Cc2ccccc2)c1 [Example 4.6, N-tert-Butyl-3-[(2-phenylacetyl)amino]benzamide]",53,5.41
"CC1(NC(=O)c2cccc(NC(=O)Cc3cc(Cl)ccc3O)c2)CCOCC1 [Example 7.8, 3-[[2-(5-Chloro-2-hydroxy-phenyl)acetyl]amino]-N-(4-methyltetrahydropyran-4-yl)benzamide]",231,6.04
"O=C(Cc1cc(Cl)ccc1O)Nc1ccnc(C(=O)NCc2cccnc2)c1 [Example 32.2, 4-[[2-(5-Chloro-2-hydroxy-phenyl)acetyl]amino]-N-(3-pyridylmethyl)pyridine-2-carboxamide]",183,6.47
"CC(C)(C)NC(=O)c1cc(NC(=O)Cc2cc(CCCO)ccc2O)ccn1 [Example 75, N-tert-Butyl-4-[[2-[2-hydroxy-5-(3-hydroxypropyl)phenyl]acetyl]amino]pyridine-2-carboxamide]",34,
"CC(C)(C)NC(=O)c1cc(NC(=O)Cc2ccc(F)cc2O)ccn1 [Example 3.2a, N-tert-Butyl-4-[[2-(4-fluoro-2-hydroxy-phenyl)acetyl]amino]pyridine-2-carboxamide]",116,6.80
"O=C(Cc1cc(Cl)ccc1O)Nc1ccnc(C(=O)N[C@@]2(CO)CCOC2)c1 (single isomer, unassigned) [Example 35a, 4-[[2-(5-Chloro-2-hydroxy-phenyl)acetyl]amino]-N-[(3R)-3-(hydroxymethyl)tetrahydrofuran-3-yl]pyridine-2-carboxamide or 4-[[2-(5-chloro-2-hydroxy-phenyl)acetyl]amino]-N-[(3S)-3-(hydroxymethyl)tetrahydrofuran-3-yl]pyridine-2-carboxamide]",137,7.00
"O=C(Cc1cc(F)ccc1O)Nc1cccc(C(=O)NC2CCCCC2)c1 [Example 35.22, N-Cyclohexyl-3-[[2-(5-fluoro-2-hydroxy-phenyl)acetyl]amino]benzamide]",104,6.66
"COc1ccc(CC(=O)Nc2cccc(C(=O)NC(C)(C)C)c2)c(O)c1 [Example 2.14, N-tert-Butyl-3-[[2-(2-hydroxy-4-methoxy-phenyl)acetyl]amino]benzamide]",100,5.75

Structure (SMILES),% Potentiation @ 3.33 μM Avg [%],pEC50
"N#CC1(NC(=O)c2cc(NC(=O)Cc3cc(F)ccc3Cl)ccn2)CC1 [Example 23.2, 4-[[2-(2-Chloro-5-fluoro-phenyl)acetyl]amino]-N-(1-cyanocyclopropyl)pyridine-2-carboxamide]",87,
"CC1(NC(=O)c2cccc(NC(=O)Cc3cc(F)ccc3O)c2)CCCCC1 [Example 35.20, 3-[[2-(5-Fluoro-2-hydroxy-phenyl)acetyl]amino]-N-(1-methylcyclohexyl)benzamide]",240,6.38
"CC(C)(C)NC(=O)c1cc(NC(=O)Cc2ccc(Cl)cc2O)ccn1 [Example 3.6b, N-tert-Butyl-4-[[2-(4-chloro-2-hydroxy-phenyl)acetyl]amino]pyridine-2-carboxamide]",205,6.92
"C#CC1(NC(=O)c2cc(NC(=O)Cc3ccccc3Cl)ccn2)CCOCC1 [Example 30.11, 4-[[2-(2-Chlorophenyl)acetyl]amino]-N-(4-ethynyltetrahydropyran-4-yl)pyridine-2-carboxamide]",125,6.66
"C#CC(C)(C)NC(=O)c1cc(NC(=O)Cc2ccc(C(F)(F)F)cc2)ccn1 [Example 5.35, N-(1,1-Dimethylprop-2-ynyl)-4-[[2-[4-(trifluoromethyl)phenyl]acetyl]amino]pyridine-2-carboxamide]",106,6.74
"N#CC1(NC(=O)c2cc(NC(=O)Cc3ccc(Cl)cc3)ccn2)CC1 [Example 23, 4-[[2-(4-Chlorophenyl)acetyl]amino]-N-(1-cyanocyclopropyl)pyridine-2-carboxamide]",93,
"C#CC(C)(C)NC(=O)c1cc(NC(=O)Cc2cc(F)ccc2O)ccn1 [Example 81.3, N-(1,1-Dimethylprop-2-ynyl)-4-[[2-(5-fluoro-2-hydroxy-phenyl)acetyl]amino] pyridine-2-carboxamide]",129,7.40
"CC(C)(C)NC(=O)c1cc(NC(=O)Cc2cc(Cl)ccc2O)ccn1 [Example 3, N-tert-Butyl-4-[[2-(5-chloro-2-hydroxy-phenyl)acetyl]amino]pyridine-2-carboxamide]",287,6.96
"CC(C)(C)NC(=O)c1cc(NC(=O)NCc2cccc(Cl)c2)ccn1 [Example 64.7, N-tert-Butyl-4-[(3-chlorophenyl)methylcarbamoylamino]pyridine-2-carboxamide]",83,
"CC(C)(CO)NC(=O)c1cc(NC(=O)Cc2cc(Cl)ccc2O)ccn1 [Example 32.7, 4-[[2-(5-Chloro-2-hydroxy-phenyl)acetyl]amino]-N-(2-hydroxy-1,1-dimethyl-ethyl)pyridine-2-carboxamide]",111,6.70
"COC(=O)CC1(NC(=O)c2cc(NC(=O)Cc3cc(Cl)ccc3O)ccn2)CCOCC1 [Example 47.1, Methyl2-[4-[[4-[[2-(5-chloro-2-hydroxy-phenyl)acetyl]amino]pyridine-2-carbonyl]amino]tetrahydropyran-4-yl]acetate]",156,5.72
"CC(C)(C)NC(=O)c1cccc(NC(=O)Cc2c(O)cccc2O)c1 [Example 2.4, N-tert-Butyl-3-[[2-(2,6-dihydroxyphenyl)acetyl]amino]benzamide]",53,
"CC(C)(C)NC(=O)c1cc(NC(=O)Cc2ccccc2OC(F)F)ccn1 [Example 23.4, N-tert-Butyl-4-[[2-[2-(difluoromethoxy)phenyl]acetyl]amino]pyridine-2-carboxamide]",115,
"CC(O)c1ccc(O)c(CC(=O)Nc2ccnc(C(=O)NC(C)(C)C)c2)c1 (stereo not shown) [Example 66, N-tert-Butyl-4-[[2-[2-hydroxy-5-(1-hydroxyethyl)phenyl]acetyl]amino]pyridine-2-carboxamide]",130,
"C#CC(C)(C)NC(=O)c1cccc(NC(=O)Cc2cc(F)ccc2O)c1 [Example 35.21, N-(1,1-Dimethylprop-2-ynyl)-3-[[2-(5-fluoro-2-hydroxy-phenyl)acetyl]amino]benzamide]",200,6.39
"O=C(Cc1ccccc1Cl)Nc1ccnc(C(=O)NC23CCC(F)(C2)C3)c1 [Example 30.2, 4-[[2-(2-Chlorophenyl)acetyl]amino]-N-(4-fluoro-1-bicyclo[2.1.1]hexanyl)pyridine-2-carboxamide]",221,6.74
"CC(C)C(C)(C)NC(=O)c1cccc(NC(=O)Cc2cc(Cl)ccc2O)c1 [Example 7.5, 3-[[2-(5-Chloro-2-hydroxy-phenyl)acetyl]amino]-N-(1,1,2-trimethylpropyl)benzamide]",239,6.55

# Reference: patent publication US20200361871A1 (Enterprise Therapeutics Ltd., priority 2018, published 2020)
